Assays:
[1] = test system: ischemia induced by middle cerebral artery occlusion (MCAO); experiment: Pretreatment with estrogen compounds before middle cerebral artery occlusion (MCAO) in ovariectomized rats: mortality and ischemic area; type: in vivo, rat; conditions: for reduction of ischemic area: 5 mm Silastic tube 24 h prior to MCAO
[2] = test system: Primary rat brain capillary endothelial cells (BCEC); experiment: BCEC mortality under combined anoxia and hypoglycemia, Trypan blue; conditions: 2 nM; 100 mg % glucose; anoxia 2 hours
Procedure: Cell media contained 200 mg % or 100 mg % glucose. Culture dishes containing BCEC were placed in either an incubator or a nitrogen filled chamber for two hours. Trypan blue staining was used to distinguish live cells from dead cells. Two cell countings at two different hemacytometer squares were averaged. Mean ±SEM are depicted (n=8.12). *<0.05 vs. corresponding vehicle control.
(§1) Primary rat brain capillary endothelial cells (BCEC) cultures were prepared following the method of Goldstein, J. Neurochemistry vol.
Nitrogen gas was influxed to replace the oxygen inside the chamber. The chamber was sealed and placed in the incubator for four hours for nonhypoglycemic cultures and 2 hours for hypoglycemic cultures.
(§2) Cell mortality was counted using Trypan blue staining method. Cell death percentage was calculated as dead cell/alive cell ×100%.
(§3) Statistical treatment included two-way analysis of variance applied to determine the significance of the difference among the experimental groups. Kruskal-Wallis nonparametric analysis was used for data presented as percentage. […] P<0.05 was considered significant.

[3] = test system: Primary rat brain capillary endothelial cells (BCEC); experiment: Brain capillary endothelial cell (BCEC) mortality under hypoglycemia, Trypan blue; conditions: 2 nM
Procedure: The control consists of the ethanol vehicle only. The glucose concentrations in the cell media were adjusted from 20 mg % to 200 mg % by adding appropriate amount of D-(+)-glucose to the glucose-free media. BCEC were incubated for 24 hours (a) and 48 hours (b). Trypan blue staining was used to distinguish live cells from dead cells. Two cell countings at two different hemacytometer squares were averaged. Mean±SEM are depicted (n=8-12). *p<0.05 vs. corresponding vehicle control.
as §1
Hypoglycemia experiments were undertaken. […] The glucose concentration of the culture media was then adjusted from 20 mg % to 200 mg % by adding appropriate amount of D-(+)-glucose to the glucose-free media and monitored by Glucose and L-Lactate Analyzer (YSI model 2300 STAT plus, YSI, Inc., Yellow Springs, Ohio). The hypoglycemic cultures were maintained for 24 hours or 48 hours prior to staining with Trypan blue.
as §2, §3

[4] = test system: ischemia induced by middle cerebral artery occlusion (MCAO); experiment: Post-treatment at 0.5, 1, 2, 3 and 4 hours after MCAO: ischemic lesion volume by TTC staining; type: in vivo, rat; conditions: iv 100 μg/kg HPCD-complexed 17β-estradiol plus Silastic pellet at 0.5, 1, 2 or 3 hours post-occlusion; 48 hours after MCAO

SMILES: C[C@]12CC[C@@H]3c4ccc(O)cc4CC[C@H]3[C@@H]1CC[C@H]2O [17α-estradiol]
- reduction of ischemic area ([1]; slice C): 55%
- reduction of ischemic area ([1]; slice D): 66%
- reduction of ischemic area ([1]; slice E): 81%
- protective effect in tissue slices (FIG. 3) ([1]; sustained subcutaneous delivery initiated 24 hours prior to ischemic event, slices A-E): significant protective effect

SMILES: C[C@]12CC[C@@H]3c4ccc(O)cc4CC[C@H]3[C@@H]1CC[C@@H]2O [17β-estradiol]
- ischemic area, percent of cross-sectional area of brain sections ([1]; pretreatment 24 h prior to MCAO, 3 brain slices, sham 25.6±5.7%): 9.8±4.0%
- protective effect in tissue slices (FIG. 2) ([1]; sc injection two hours prior to ischemic event, slices A-D): significant protective effect
- protection from cumulative effect of hypoglycemia and anoxia [2]: effective in protecting
- cell loss saved compared with control ([3]; media glucose 20 mg %): 23%
- cell loss saved compared with control ([3]; media glucose 40 mg %): 28.4%
- cell loss saved compared with control ([3]; media glucose 100 mg %): 35.9%
- protection, ischemic lesion volume (TTC staining) [4]: significant protection

Source: US20020052353A1, “Methods of prevention and treatment of ischemic damage” (priority 1999, published 2002)
